From ChEMBL document CHEMBL1130732, “Homologated aza analogs of arabinose as antimycobacterial agents” (1998)
Converted amounts (≈) assume the structure as drawn. The source made the active and inactive calls. The rule behind the calls is not given here.

Columns and labels:
[1] = test system: Mycobacterium tuberculosis; assay: Minimum inhibitory concentration against Mycobacterium tuberculosis H37Ra; assay type: functional
[2] = test system: Mycobacterium tuberculosis; assay: Percent inhibition of compound against Mycobacterium tuberculosis H37Ra at 12.5 ug/mL concentration in BACTEC assay; assay type: functional
[3] = test system: Mycobacterium tuberculosis; assay: Minimum inhibitory concentration against Mycobacterium tuberculosis H37Ra; value ranges from 32-128 ug/mL; assay type: functional
[4] = test system: Mycobacterium tuberculosis; assay: Minimum bactericidal concentration against Mycobacterium tuberculosis H37Ra; assay type: functional
[5] = test system: Mycobacterium tuberculosis; assay: Minimum inhibitory concentration against Mycobacterium tuberculosis H37Ra; value ranges from >12.8-<=128 ug/mL; assay type: functional
Mycobacterium avium [6] = assay: Anti-MAC activity against Mycobacterium avium macrophage was determined; assay type: functional
[7] = test system: Mycobacterium tuberculosis; assay: Minimum inhibitory concentration against Mycobacterium tuberculosis H37Ra; partial inhibition at 128 ug/mL; assay type: functional
Mycobacterium avium [8] = assay: Anti-MAC activity against Mycobacterium avium macrophage; cytotoxic to macrophages; assay type: functional, organism-based
[9] = test system: Mycobacterium tuberculosis; assay: Minimum inhibitory concentration against Mycobacterium tuberculosis H37Ra; value ranges from […] ug/mL; assay type: functional
[10] = test system: Mycobacterium tuberculosis; assay: Minimum inhibitory concentration against Mycobacterium tuberculosis H37Ra; value ranges from 16-64 ug/mL; assay type: functional
[11] = test system: Mycobacterium tuberculosis; assay: Minimum bactericidal concentration against Mycobacterium tuberculosis H37Ra; value ranges from 64->128 ug/mL; assay type: functional
Mycobacterium avium [12] = assay: Anti-MAC activity against Mycobacterium avium macrophage; I means inactive in macrophages; assay type: functional, organism-based
[13] = test system: Mycobacterium tuberculosis; assay: Minimum inhibitory concentration against Mycobacterium tuberculosis H37Ra; […]; assay type: functional
[14] = test system: Mycobacterium tuberculosis; assay: Minimum inhibitory concentration against Mycobacterium tuberculosis H37Ra; value ranges from 16-32 ug/mL; assay type: functional

OCC1NC(CSc2ccncc2)C(O)C1O (stereo not given)
MIC [1]: > 128 µg/mL | inhibition at 12.5 µg/mL [2]: 6%

N#Cc1ccc(SCC2NC(CO)C(O)C2O)cc1 (stereo not given)
MIC [1]: > 128 µg/mL | inhibition at 12.5 µg/mL [2]: 5%

CCCCCCCCCCSCC1NC(CO)C(O)C1O (stereo not given)
MIC [3]: 32 µg/mL (≈ 100 µM) | MBC [4]: ≥ 128 µg/mL

CCCCCCCCCCCCS(=O)(=O)C[C@H]1NC(CO)C(O)C1O (stereo not given in full)
MIC [5]: > 12.8 µg/mL

OC[C@H]1O[C@@H](CSc2ccccc2)[C@H](O)[C@@H]1O
MIC [1]: > 128 µg/mL | Activity (Mycobacterium avium [6]): >64 µg/mL

OCC1NC(CSc2ccccc2)C(O)C1O (stereo not given)
MIC [1]: > 128 µg/mL | inhibition at 12.5 µg/mL [2]: 0% | Activity (Mycobacterium avium [6]): 4 µg/mL

COc1ccc(SCC2NC(CO)C(O)C2O)cc1 (stereo not given)
MIC [1]: > 128 µg/mL

OCC1NC(CSc2ccc3ccccc3c2)C(O)C1O (stereo not given)
MIC [7]: > 128 µg/mL | inhibition at 12.5 µg/mL [2]: 18%

CC(C)=CCC/C(C)=C\CSCC1NC(CO)C(O)C1O (stereo not given)
Activity (Mycobacterium avium [8]): Cytotoxic | MIC [9]: 64 µg/mL (≈ 203 µM)

OCC1NC(CSCc2ccccc2)C(O)C1O (stereo not given)
MIC [1]: > 128 µg/mL

CCCCCCCCCCCCCCCCSCC1NC(CO)C(O)C1O (stereo not given)
MIC [10]: 16 µg/mL (≈ 39.6 µM) | MBC [11]: 64 µg/mL (≈ 159 µM)

[O-][S+](CC1NC(CO)C(O)C1O)c1ccccc1 (stereo not given)
MIC [1]: > 128 µg/mL | inhibition at 12.5 µg/mL [2]: 18% | Activity (Mycobacterium avium [12]): inactive

CCCCCCCCCCCC[S+]([O-])CC1NC(CO)C(O)C1O (stereo not given)
MBC [4]: ≥ 128 µg/mL | MIC [13]: 32 µg/mL (≈ 88 µM)

COc1ccccc1SCC1NC(CO)C(O)C1O (stereo not given)
MIC [1]: > 128 µg/mL

CCCCCCCCCCCCS(=O)(=O)CC1NC(CO)C(O)C1O (stereo not given)
MIC [3]: 32 µg/mL (≈ 84.3 µM) | Activity (Mycobacterium avium [8]): Cytotoxic | MBC [4]: ≥ 128 µg/mL

O=S(=O)(CC1NC(CO)C(O)C1O)c1ccccc1 (stereo not given)
MIC [1]: > 128 µg/mL | inhibition at 12.5 µg/mL [2]: 6% | Activity (Mycobacterium avium [12]): inactive

CCCCCCCCCCCCSCC1NC(CO)C(O)C1O (stereo not given)
MIC [14]: 16 µg/mL (≈ 46 µM) | Activity (Mycobacterium avium [8]): Cytotoxic | MBC [11]: 64 µg/mL (≈ 184 µM)
